According to US20260109721A1, “IONIZABLE CATIONIC LIPIDS INCORPORATING SILICON: SYNTHESIS AND LNP FORMULATION” (priority 2023, published 2026):

Tests used:
[1] = LNP size, PDI and zeta potential by Dynamic Light Scattering (Method A); type: physicochemical; conditions: LNP formulated with the lipid, DLS
Method: (§1) The synthesized lipids were tested in term of in vitro transfection efficacy and toxicity on HeLa cells. In order to perform the mentioned biological tests, appropriate LNPs had to be formulated from the synthesized lipids. The formulation technique was different in Method A and B. The particle size, polydispersity index (PDI) and zeta potential of resulting LNPs were determined by means of Dynamic Light Scattering technique (DLS). Prior to biological testing the encapsulation efficiency (EE) of the loaded LNPs was determined by using RiboGreen RNA assay. In case of Method A Luc mRNA while in case of Method B GFP mRNA was transfected into the cells. In parallel with the transfection experiments, toxicity of the investigated LNPs was determined, in case of Method A resazurin assay while in case of Method B MTT assay was used. Additionally, the toxicity of the lipids was investigated on HepG2 cells and IC50 values were determined.
• 1. If needed, prepare stock solutions by solving known amounts of lipid powder into an appropriate solvent. The recommended solvent is ethanol and the recommended concentration is typically in the range 10-50 mM. Higher concentrations are preferred to allow flexibility on mRNA-LNP concentration. • 2. Remove the lipid stock solutions from the −20° C. freezer. For long-term storage, −80° C. is used. • 3. Check the vials for precipitation, DOPE (CAS #4004-05-1) (20 mM) and DSPE-PEG (CAS #474922-26-4) (5 mM) may need a 5-30 minute incubation step at 37° C. with intermittent vortexing to resuspend all contents. […] As a last resort, lipids may be heated to 50° C. to resuspend, time should be kept as short as possible to prevent oxidation or other modifying or degradative processes. • 4. Mix the lipids by vortexing for 2 minutes. • 5. […] Cooling the solution prevent excessive evaporation of ethanol or similar solvents upon opening. • 6. Meanwhile, thaw the RNA samples, including the latest SecNLuc control, by inserting the frozen tube in a room temperature aluminium block. • 7. Prepare for each LNP-formulation with identical mRNA component, an RNA master mix according to Table 1 below in a fresh tube. Use of a master mix allows more precise comparison of lipid formulations relative to each other. Split the master mix over a number of fresh tubes equal to the number of samples+controls. Each tube contains 375 μl of mRNA in 10 mM Citrate pH 4.0. • 8. Prepare for each LNP formulation with identical lipid composition a Lipid master mix according to Table 1 below in a fresh tube, exclude the lipid of interest. Use of a master mix allows more precise comparison of the novel ionizable lipid relative to each other. Split the master mix over a number of fresh tubes equal to the number of samples+controls. Each tube contains 65.5 μl of lipid master mix. • 9. Add the ionizable lipid of interest to the equally divide lipid master mix. Mix well by pipetting up and down. Label the tube according to the ionizable lipid used. • 10. Power on the L1 FM (L1 Formulation Machine uses 2 high-speed syringe pumps to mix lipids in organic solvents with mRNA in acidic aquous solution to generate well-defined LNPs. The microfluidic mixing chip involves a dean-type structure performing the high-efficiency mixing at a total flow rate (TFR) of around 12 ml/min at a 3:1 mixing ratio) and allow it to do a calibration of motor positions.
• 18. Fill a fresh syringe (C) through a blunt 18G stainless steel needle with the previously prepared RNA mixture of step 6. The volume should be approximately 85% of total formulation volume+25 μl (dead-volume). Make sure to remove all air bubbles by tapping. • 19. Fill a fresh syringe (D) through a blunt 18G stainless steel needle with the Lipid master mix. The volume should be approximately […] of total formulation volume+25 μl (dead-volume). Again, Make sure to remove all bubbles. • 20. Attach the syringes in the correct orientation, syringe A on the left and syringe B on the right • 21.

HeLa cells = assay: Transfection efficiency with Luciferase (SecNLuc) mRNA, Nano-Glo assay (Method A); type: cell-based; conditions: Luc mRNA, 24 h, luminescence; for Transfection 10 ng mRNA: 10 ng mRNA/well; for Transfection 50 ng mRNA: 50 ng mRNA/well; for Transfection 100 ng mRNA: 100 ng mRNA/well
Method: as §1
• 1. Prepare mRNA solution by adding 100 ng mRNA (SecNLuc, #P009024, RiboPro) to 5 μl Opti-MEM • multiply by number of wells, include different concentrations and add 10% extra • a standard set-up we use is 100 ng-50 ng-10 ng mRNA/well in triplicate, which would need […] mRNA (includes 10% extra)
• 2. (If applicable) Prepare different concentrations in Opti-MEM (for instance 100/50/10 ng). • 3. Add 10 μl to each well and mix carefully by pipetting. • 4. Mix by swirling the plate horizontally at modest speed. Reverse in direction 3 times. • 5. Incubate for 24 hours (incubator).
This protocol is applied to measure luciferase activity for secreted NanoLuc and is based on the protocol by Promega (Nano-Glo® Luciferase Assay System #N1110-1150). The protocol is designed for a 384-wells plate, but volumes can be changed accordingly for other plates.
• 1. Plate cells (HeLa) in 96-well plate, grow until 80% confluent and transfect with SecNanoLuc mRNA and incubate for the desired period (24 h). • 2. After incubation, the translated protein is accumulated in the medium. Transfer medium to a new plate or tubes. • 3. Transfer 12 μl of each sample to a black-walled, clear-bottom 384-well plate • Black-walled plates are important to prevent shine-through of luminescence from other wells; alternatively, multiple wells between samples can be left empty. • 4. Set-up plate reader • 5. Prepare the desired amount of Nano-Glo® Luciferase Assay Reagent by combining one volume of Nano-Glo® Luciferase Assay Substrate with 50 volumes of Nano-Glo® Luciferase Assay Buffer: • a. composition: 100 mM MES pH 6; 1 mM EDTA; […]; 150 mM KCl; 1 mM DTT; 35 mM Thiourea; • b. briefly spin tubes containing substrate in a microcentrifuge before use. • 6. Add and mix (by pipetting) 12 μl Nano-Glo® Luciferase Assay Reagent per well • Wait approximately 3 minutes before measuring luminescence. […] Measure luminescence in plate reader using standard protocol luciferase (this includes mixing sample in plate reader)

SMILES | PDI [1] | Size (nm) [1] [nm] | Zeta potential (mV) [1] [mV] | Transfection 10 ng mRNA (HeLa cells) | Transfection 50 ng mRNA (HeLa cells) | Transfection 100 ng mRNA (HeLa cells)
CCCCC/C=C\C/C=C\CCCCCCCCOC(CC[C@@H](C)C1CCC2C3CCC4C[C@H](OC)CC[C@]4(C)C3CC[C@@]21C)O[Si](C)(C)OCCCCCCN(CCO)CCO (stereo partly drawn) [Example 52, (23Z,26Z)-3-(2-hydroxyethyl)-13-((3R)-3-((3R,10S,13R)-3-methoxy-10,13-dimethylhexadecahydro-1H-cyclopenta[a]phenanthren-17-yl)butyl)-11,11-dimethyl-10,12,14-trioxa-3-aza-11-siladotriaconta-23,26-dien-1-ol] | 0.005 | 137.6 | −9.231 | 1.02E+05 | 1.65E+06 | 9.16E+06
C#CCN(C)CCCCCCO[Si](C)(C)OC(CCCCCCC/C=C\C/C=C\CCCCC)OCCCCCCCC/C=C\C/C=C\CCCCC (stereo not drawn) [Example 67, (20Z,23Z)-10-((8Z,11Z)-heptadeca-8,11-dien-1-yl)-N,8,8-trimethyl-N-(prop-2-yn-1-yl)-7,9,11-trioxa-8-silanonacosa-20,23-dien-1-amine] | 0.058 | 127.2 | −8.62 | 2.42E+04 | 4.02E+05 | 1.79E+06
CCCCCCCC/C=C\CCCCCCCCOC(CC[C@@H](C)C1CCC2C3CCC4C[C@H](OC)CC[C@]4(C)C3CC[C@@]21C)O[Si](C)(C)OCCCCCCN(CCO)CCO (stereo partly drawn) [Example 51, (Z)-3-(2-hydroxyethyl)-13-((3R)-3-((3R,10S,13R)-3-methoxy-10,13-dimethylhexadecahydro-1H-cyclopenta[a]phenanthren-17-yl)butyl)-11,11-dimethyl-10,12,14-trioxa-3-aza-11-siladotriacont-23-en-1-ol] | 0.060 | 135.6 | −8.124 | 1.05E+04 | 1.70E+05 | 7.44E+05
CCCCCCCC/C=C\CCCCCCCCOC(=O)C(C)(C)CC(OCCCCCCCC/C=C\CCCCCCCC)O[Si](C)(C)OCCCCCCN(CCO)CCN(CCO)CCCCCCO[Si](C)(C)OC(CC(C)(C)C(=O)OCCCCCCCC/C=C\CCCCCCCC)OCCCCCCCC/C=C\CCCCCCCC (stereo not drawn) [Example 96, di((Z)-octadec-9-en-1-yl) 14,17-bis(2-hydroxyethyl)-2,2,6,6,25,25,29,29-octamethyl-4,27-bis(((Z)-octadec-9-en-1-yl)oxy)-5,7,24,26-tetraoxa-14,17-diaza-6,25-disilatriacontanedioate] | 0.14 | 81.42 | −17.77 | 3.94E+02 | 2.15E+03 | 2.94E+03
CCCCCCCC/C=C\CCCCCCCCOC(=O)C(C)(C)CC(OCCCCCCCC/C=C\CCCCCCCC)O[Si](C)(C)OCCCCCCN1CCCCC1 (stereo not drawn) [Example 87, (Z)-octadec-9-en-1-yl 4-((dimethyl((6-(piperidin-1-yl)hexyl)oxy)silyl)oxy)-2,2-dimethyl-4-(((Z)-octadec-9-en-1-yl)oxy)butanoate] | 0.06 | 101.8 | −12.28 | 5.68E+03 | 5.01E+04 | 9.96E+04
CCCCC/C=C\C/C=C\CCCCCCCCOC(CCCCCCC/C=C\C/C=C\CCCCC)O[Si](C)(C)OCCCCCCN(C)CCO (stereo not drawn) [Example 56, (23Z,26Z)-13-((8Z,11Z)-heptadeca-8,11-dien-1-yl)-3,11,11-trimethyl-10,12,14-trioxa-3-aza-11-siladotriaconta-23,26-dien-1-ol] | 0.057 | 149.5 | −10.08 | 3.00E+00 | 5.63E+01 | 6.90E+01
CCCCCCCC/C=C\CCCCCCCCOC(=O)C(C)(C)CC(OCCCCCCCC/C=C\CCCCCCCC)O[Si](C)(C)OCCCCCCN(C)CC(O)CO (stereo not drawn) [Example 92, (Z)-octadec-9-en-1-yl 1,2-dihydroxy-4,12,12,16,16-pentamethyl-14-(((Z)-octadec-9-en-1-yl)oxy)-11,13-dioxa-4-aza-12-silaheptadecan-17-oate] | 0.23 | 85.81 | −12.56 | 3.35E+03 | 3.94E+04 | 1.65E+05
C#CCN(C)CCCCCCO[Si](C)(C)OC(CC(C)(C)C(=O)OCCCCCCCC/C=C\CCCCCCCC)OCCCCCCCC/C=C\CCCCCCCC (stereo not drawn) [Example 97, (Z)-octadec-9-en-1-yl 4,12,12,16,16-pentamethyl-14-(((Z)-octadec-9-en-1-yl)oxy)-11,13-dioxa-4-aza-12-silaheptadec-1-yn-17-oate] | 0.26 | 101.9 | −22.01 | 3.01E+02 | 1.34E+03 | 1.28E+03
CCCCCCCC/C=C\CCCCCCCC(OCCCCCCCCCCCC1CCCCC1)O[Si](C)(C)OCCCCCCN(CCO)CCO (stereo not drawn) [Example 74, (Z)-25-cyclohexyl-13-(heptadec-8-en-1-yl)-3-(2-hydroxyethyl)-11,11-dimethyl-10,12,14-trioxa-3-aza-11-silapentacosan-1-ol] | 0.19 | 73.11 | −9.76 | 2.47E+03 | 3.87E+04 | 1.11E+05
CCCCC/C=C\C/C=C\CCCCCCCCOC(CCCCCCC/C=C\C/C=C\CCCCC)O[Si](C)(C)OCCCCCCN(C)C (stereo not drawn) [Example 79, (20Z,23Z)-10-((8Z,11Z)-heptadeca-8,11-dien-1-yl)-N,N,8,8-tetramethyl-7,9,11-trioxa-8-silanonacosa-20,23-dien-1-amine] | 0.09 | 102.1 | −2425 | 2.45E+03 | 8.30E+04 | 2.01E+05
